Experiments:
[1] = tested on: SUMOylation of His-RanGap (SUMO-E1 (SAE), SUMO-E2 (UBC9), GST-SUMO); assay: HTRF assay measuring increase in SUMOylation of His-RanGap; type: biochemical; details: His-RanGap substrate; HTRF 665/620 ratio; 70 nl of 2 mM compound in DMSO per well; 30 min at room temperature; triplicate
Procedure: Assay measuring increase in SUMOylation of His-RanGap. We utilized an HTRF assay containing SUMO-E1 (SAE), SUMO-E2 (UBC9), GST-SUMO and His-RanGap, a known SUMO substrate, as well as the respective fluorescent antibodies. The assay was run in 1536-well plate format and the selected activators were chosen based on their ability to increase the FRET signal over a baseline level. In 1536-well white plates, 2 μl of phosphate buffered saline (assay buffer) was dispensed into columns 1 and 2, and 2 μl of Mixture 1 (37.5 nM E1 and 100 nM His-RanGap-1) in assay buffer (50 mM Tris-HCl pH 7.4, 0.3 mM DTT, 10 mM MgCl2, 0.005% Tween-20), was dispensed into columns 3-48. Using a pintool, 70 nl of 2 mM compounds in DMSO was dispensed to columns 5-48 and 70 nl of DMSO was dispensed to columns 1-4. Using the Thermo Scientific MultiDrop Combi, 2 μL of Mixture 2 (20 mM ATP, 12.5 nM E2 and 30 nM GST-SUMO in buffer) was dispensed to all wells and incubated for 30 min. at room temperature followed by 1 μl of 500 mM KF. Plates were read on a PheraStar in a HTRF mode (Ex: 337 nm; Em: 620/665 nm). The ratio of fluorescence 665 over 620 was utilized as a readout of the assay. Increase in SUMOylation was calculated by comparison to baseline level. Measurements were done in triplicate.

BGMK cells = assay: Rescue of BGMK cells from thapsigargin-induced cell death (CCK-8 cell viability); type: cell-based; details: for % BGMK Cell Viability after treatment in Presence of 10 μM compound: 2 hr pretreatment, TG 24 hrs, TG alone causes ~100% cell death
Source text: Ability of compounds to rescue BGMK cells from thapsigargin-induced cell death. To assess an orthogonal cell line and further validate the ability of SUMOylation activators to rescue varied cell types, the compounds were also profiled for cytoprotection in BGMK cells. Again, we used the known ER stress-causing agent thapsigargin (TG) to model the compromised state in vitro. BGMKs were subcultured at 1.2×10^4 cells/ml. Wells treated with compound were done so for 2 hr. […] After treatment, all cells were washed and fed fresh DMEM complete media and CCK-8 development vehicle, incubated for 2 hr, and absorbance was measured to assess viability. Controls were DMSO (0% viability) and Salubrinal (47% viability).

CSM14.1 neuronal cells = assay: Rescue of CSM14.1 neurons from thapsigargin-induced cell death (ATPlite cell viability); type: cell-based, rat; details: 15 μM thapsigargin for 20 h after 2 h preincubation, TG alone causes ~100% cell death
Source text: Ability of compounds to rescue CSM14.1 neurons from thapsigargin-induced cell death. To assess the ability of the compounds to rescue neurons from ER stress-induced cell death, the rat striatal neuroprogenitor cell line CSM14.1 was used. Endoplasmic reticulum (ER) stress has been established as the major cause of neuronal loss in stroke, ischemia, and neurodegeneration (Tajiri, S.; Oyadomari, S.; Yano, S.; Morioka, M.; Gotoh, T.; Hamada, J. I.; Ushio, Y.; Mori, M. Cell Death Differ. 2004, 11, 403-415; Kohno, K.; Higuchi, T.; Ohta, S.; Kumon, Y.; Sakaki, S. Neurosci. Lett. 1997, 224, 17-20; Iadecola, C.; Zhang, F.; Casey, R.; Nagayama, M.; Ross, M. E. J. Neurosci. 1997, 17, 9157-9164). Thus, we used the known ER stress-causing agent thapsigargin (TG) to model the compromised state in vitro. TG causes 100% cell death in most cases, and compounds were assessed for neuroprotection by measuring cell viability when dosed at 10 μM. CSM14.1 cells were recovered from cultures by trypsinization and plated in 96-well plates and incubated overnight at 32° C. 5 μl of test compound was added to achieve a final concentration of […]. Salubrinal and DMSO without compound were used as positive and negative controls, respectively. After 2 h of preincubation, TG-containing DMEM was added to give a final concentration of 15 μM and incubated for an additional 20 h. Cell viability was assessed by a cellular ATP content assay (ATPlite, PerkinElmer Life Sciences).

Row | SMILES | % INCREASE IN SUMOylation over endogenous baseline level [1] | % BGMK Cell Viability after treatment in Presence of 10 μM compound (BGMK cells) | % CSM14.1 Cell Viability after treatment with 15 μM TG in Presence of 10 μM compound (CSM14.1 neuronal cells) | BGMK cell viability (control) (BGMK cells; positive control after thapsigargin injury, DMSO = 0% viability, control concentration not given)
1 | O=S(=O)(Nc1cccc2cccnc12)c1ccc(S(=O)(=O)N2CCCC2)cc1 [Compound A2, 4-(Pyrrolidin-1-ylsulfonyl)-N-(quinolin-8-yl)benzenesulfonamide] | D (D = 40%-50% increase in SUMOylation over baseline levels) | D (D = 61%-70% viability of BGMK cells) | C (C = 61%-70% viability of CSM14.1 neurons) | –
2 | Cc1ccc(S(=O)(=O)Nc2cccc3cccnc23)cc1 [Compound A6, 4-Methyl-N-(quinolin-8-yl)benzenesulfonamide] | B (B = 21%-30% increase) | C (C = 51%-60% viability) | C (C = 61%-70% viability of CSM14.1 neurons) | –
3 | CC(=O)Nc1ccc(S(=O)(=O)Nc2cccc3cccnc23)cc1 [Compound A1, N-(4-(N-(Quinolin-8-yl)sulfamoyl)phenyl)acetamide] | B (B = 21%-30% increase) | C (C = 51%-60% viability) | B (B = 51%-60% viability) | –
4 | COc1ccc(NS(=O)(=O)c2ccc3ccccc3c2)c2ncccc12 [Compound A4, N-(5-Methoxy-8-quinolinyl)-2-naphthalenesulfonamide] | C (C = 31%-40% increase) | – | – | –
5 | Cc1cc(C)n(-c2ccc3cccc(NS(C)(=O)=O)c3n2)n1 [Compound A7, N-[2-(3,5-Dimethyl-1H-pyrazol-1-yl)-8-quinolinyl]methanesulfonamide] | B (B = 21%-30% increase) | – | – | –
6 | O=[N+]([O-])c1ccccc1S(=O)(=O)Nc1cccc2cccnc12 [Compound A5, 2-Nitro-N-(8-quinolinyl)benzenesulfonamide] | C (C = 31%-40% increase) | – | – | –
7 | O=S(=O)(Nc1cccc2cccnc12)c1ccccc1 [Compound A3, N-(Quinolin-8-yl)benzenesulfonamide] | B (B = 21%-30% increase) | A (A = 30%-40% viability) | A (A = 40%-50% viability) | –
8 | O=C(/C=C/c1ccccc1)NC(NC(=S)Nc1cccc2cccnc12)C(Cl)(Cl)Cl (stereo not shown) [Salubrinal, reference compound] | – | – | – | 47%
9 | CS(=O)(=O)Nc1cccc2cccnc12 [Compound A8, N-(8-Quinolinyl)methanesulfonamide] | B (B = 21%-30% increase) | – | – | –
10 | COc1cc(NS(=O)(=O)c2ccc(C)cc2)c2ncccc2c1 [Compound A10, N-(6-Methoxy-8-quinolinyl)-4-methylbenzenesulfonamide] | C (C = 31%-40% increase) | – | – | –
11 | COc1cc(NS(=O)(=O)c2ccc3ccccc3c2)c2ncccc2c1 [Compound A9, N-(6-Methoxy-8-quinolinyl)-2-naphthalenesulfonamide] | B (B = 21%-30% increase) | – | – | –
